From patent publication US20230085307A1, “PYRIDAZINONE COMPOUND AND HERBICIDE” (NISSAN CHEMICAL CORPORATION, priority 2019, published 2023)

Experiments:
oval-leafed pondweed = assay: Test Example 1: herbicidal activity, application before weed generation under submerged conditions (Table 16, symbol C); assay type: in vivo, oval-leafed pondweed (Monochoria vaginalis)
Source text: [Test Example 1] Herbicidal Activity Test by Application before Weed Generation under Submerged Conditions After alluvial soil was placed into 1/10000 are of Wagner pot, water was poured and mixed to form a submerged condition having a water depth of 4 cm. Seeds of late watergrass, Japanese bulrush, and oval-leafed pondweed were sowed in a mixed manner in the aforementioned pot, and then 2.5 leaf stage rice plant seedlings were transplanted thereto. On the day of sowing seeds, the emulsion agent of the compound of the present invention prepared according to Formulation Example 2 was diluted with water so as to achieve a predetermined herbicide amount, and the diluted emulsion agent was applied to the surface of the water. The pot was placed in a greenhouse at 25° C. to 30° C. for growth of the plants. Three weeks after the herbicide application, the effect of the herbicide on each plant was evaluated according to the following criteria. Evaluation Criteria 5: Herbicidal rate of 90% or more (almost completely withered) 4: Herbicidal rate of 70% or more and less than 90% 3: Herbicidal rate of 40% or more and less than 70% 2: Herbicidal rate of 20% or more and less than 40% 1: Herbicidal rate of 5% or more and less than 20% 0: Herbicidal rate of 5% or less (almost no effect)

barnyard grass [1] = assay: Test Example 3: herbicidal effect by foliage application, Wagner pot (Table 18, symbol H); assay type: in vivo, barnyard grass (Echinochloa crus-galli)
Procedure, shortened: (§1)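 Plants were sown in alluvial soil held under 0.1–0.5 cm standing water and grown 14 days in a greenhouse at 25–30 °C. An emulsifiable formulation, water-diluted to the set dose, was then sprayed onto the foliage, and effects were scored three weeks later using previously defined criteria.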

late watergrass = assay: Test Example 1: herbicidal activity, application before weed generation under submerged conditions (Table 16, symbol A); assay type: in vivo, late watergrass (Echinochloa oryzicola)
Procedure, shortened: (§2)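 Alluvial soil was flooded to 4 cm depth, weed seeds were sown mixed and 2.5-leaf rice seedlings were transplanted. On sowing day, the compound's emulsion, diluted in water to a set dose, was applied to the water surface. Plants grew at 25–30 °C and were scored 0–5 after three weeks.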

Chinese sprangletop = assay: Test Example 3: herbicidal effect by foliage application, Wagner pot (Table 18, symbol D); assay type: in vivo, chinese sprangletop (Leptochloa chinensis)
Procedure, shortened: as §1

rice flat sedge = assay: Test Example 3: herbicidal effect by foliage application, Wagner pot (Table 18, symbol E); assay type: in vivo, rice flat sedge (Cyperus iria)
Procedure, shortened: as §1

Japanese bulrush = assay: Test Example 1: herbicidal activity, application before weed generation under submerged conditions (Table 16, symbol B); assay type: in vivo, Japanese bulrush (Schoenoplectus juncoides)
Procedure, shortened: as §2

velvetleaf [2] = assay: Test Example 4: herbicidal effect by soil treatment (Table 19, symbol M); assay type: in vivo, velvetleaf (Abutilon theophrasti); conditions: amount of applied herbicide 320 g/ha
Procedure, shortened: (§3)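 In this soil treatment, the formulated compound reached the seeds only through the soil: seeds were buried about 1.5 cm deep in sterilized diluvial soil, then the diluted emulsion was sprayed over the surface. After three weeks at 25° C. to 30° C. in a greenhouse, effects were graded on criteria from an earlier test.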

southern crabgrass [3] = assay: Test Example 5: herbicidal effect by foliage application, plastic box (Table 20, symbol F); assay type: in vivo, southern crabgrass (Digitaria ciliaris); conditions: foliage application, 320 g/ha, three weeks after application
Procedure, shortened: (§4)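 Plants were sown into sterilized diluvial soil under about 1.5 cm cover and kept in a greenhouse at 25° C. to 30° C. Fourteen days on, foliage received an even spray of the diluted emulsion. Herbicidal or crop effect was judged three weeks afterwards.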

lambsquarters [4] = assay: Test Example 4: herbicidal effect by soil treatment (Table 19, symbol O); assay type: in vivo, lambsquarters (Chenopodium album); conditions: amount of applied herbicide 320 g/ha
Procedure, shortened: as §3

barnyard grass [5] = assay: Test Example 4: herbicidal effect by soil treatment (Table 19, symbol H); assay type: in vivo, barnyard grass (Echinochloa crus-galli); conditions: amount of applied herbicide 320 g/ha
Procedure, shortened: as §3

redroot pigweed = assay: Test Example 4: herbicidal effect by soil treatment (Table 19, symbol N); assay type: in vivo, redroot pigweed (Amaranthus retroflexus); conditions: amount of applied herbicide 320 g/ha
Procedure, shortened: as §3

barnyard grass [6] = assay: Test Example 5: herbicidal effect by foliage application, plastic box (Table 20, symbol H); assay type: in vivo, barnyard grass (Echinochloa crus-galli); conditions: foliage application, 320 g/ha, three weeks after application
Procedure, shortened: as §4

southern crabgrass [7] = assay: Test Example 4: herbicidal effect by soil treatment (Table 19, symbol F); assay type: in vivo, southern crabgrass (Digitaria ciliaris); conditions: amount of applied herbicide 320 g/ha
Procedure, shortened: as §3

green foxtail [8] = assay: Test Example 5: herbicidal effect by foliage application, plastic box (Table 20, symbol G); assay type: in vivo, green foxtail (Setaria viridis); conditions: foliage application, 320 g/ha, three weeks after application
Procedure, shortened: as §4

green foxtail [9] = assay: Test Example 4: herbicidal effect by soil treatment (Table 19, symbol G); assay type: in vivo, green foxtail (Setaria viridis); conditions: amount of applied herbicide 320 g/ha
Procedure, shortened: as §3

lambsquarters [10] = assay: Test Example 5: herbicidal effect by foliage application, plastic box (Table 20, symbol O); assay type: in vivo, lambsquarters (Chenopodium album); conditions: foliage application, 320 g/ha, three weeks after application
Procedure, shortened: as §4

velvetleaf [11] = assay: Test Example 5: herbicidal effect by foliage application, plastic box (Table 20, symbol M); assay type: in vivo, velvetleaf (Abutilon theophrasti); conditions: foliage application, 320 g/ha, three weeks after application
Procedure, shortened: as §4

[12] = amount of applied herbicide 246 g/ha
[13] = amount of applied herbicide 370 g/ha
[14] = amount of applied herbicide 320 g/ha

With `COc1cc(F)ccc1-c1sc2ccc(SC)cc2c1-c1c(O)c(C)nn(C)c1=O` [2-376] the “Herbicidal effect on C: oval-leafed pondweed (grade 0-5)” value (oval-leafed pondweed; 246 g/ha applied herbicide) was 0 (Herbicidal rate of 5% or less (almost no effect)), the “herbicidal effect on H: barnyard grass” value (barnyard grass [1]; [12]) was 5 (Herbicidal rate of 90% or more (almost completely withered)) and the “Herbicidal effect on A: late watergrass (grade 0-5)” value (late watergrass; 246 g/ha applied herbicide) was 3 (Herbicidal rate of 40% or more and less than 70%). For the same compound, the “herbicidal effect on D: Chinese sprangletop” value (Chinese sprangletop; [12]) was 3 (Herbicidal rate of 40% or more and less than 70%), the “herbicidal effect on E: rice flat sedge” value (rice flat sedge; [12]) was 3 (Herbicidal rate of 40% or more and less than 70%) and the “Herbicidal effect on B: Japanese bulrush (grade 0-5)” value (Japanese bulrush; 246 g/ha applied herbicide) was 0 (Herbicidal rate of 5% or less (almost no effect)).

In the case of `CCCC(=O)Oc1c(C)nn(C)c(=O)c1-c1c(-c2ccccc2OCC)sc2cc(OC)c(-c3ccccc3OCC)cc12` [5-080], the “Herbicidal effect, C: oval-leafed pondweed” value (“Herbicidal effect, C” for short) (oval-leafed pondweed; [13]) is reported as 0 (Herbicidal rate of 5% or less (almost no effect)), the “herbicidal effect on barnyard grass (H)” value (barnyard grass [1]; 370 g/ha) is reported as 3 (Herbicidal rate of 40% or more and less than 70%) and the “Herbicidal effect, A: late watergrass” value (late watergrass; [13]) is reported as 0 (Herbicidal rate of 5% or less (almost no effect)). For the same compound, the “herbicidal effect on Chinese sprangletop (D)” value (“herbicidal effect … (D)” for short) (Chinese sprangletop; 370 g/ha) was 3 (Herbicidal rate of 40% or more and less than 70%), the “herbicidal effect on rice flat sedge (E)” value (rice flat sedge; 370 g/ha) was 2 (Herbicidal rate of 20% or more and less than 40%) and the “Herbicidal effect, B: Japanese bulrush” value (Japanese bulrush; [13]) was 3 (Herbicidal rate of 40% or more and less than 70%).

For `Cc1nn(C)c(=O)c(-c2c(-c3ccc(Cl)cc3)sc3cc(F)c(F)cc23)c1OCc1ccccc1` [5-083], the “Herbicidal effect, C” value (oval-leafed pondweed; [14]) was 0 (Herbicidal rate of 5% or less (almost no effect)), the “herbicidal effect on barnyard grass (H)” value (barnyard grass [1]; 320 g/ha) was 1 (Herbicidal rate of 5% or more and less than 20%) and the “Herbicidal effect, A: late watergrass” value (late watergrass; [14]) was 0 (Herbicidal rate of 5% or less (almost no effect)). For the same compound, the “herbicidal effect … (D)” value (Chinese sprangletop; 320 g/ha) was 0 (Herbicidal rate of 5% or less (almost no effect)), the “herbicidal effect on rice flat sedge (E)” value (rice flat sedge; 320 g/ha) was 2 (Herbicidal rate of 20% or more and less than 40%) and the “Herbicidal effect, B: Japanese bulrush” value (Japanese bulrush; [14]) was 3 (Herbicidal rate of 40% or more and less than 70%).

For `Cc1nn(C)c(=O)c(-c2c(-c3ccc(OC(F)(F)F)cc3)sc3cc(F)c(F)cc23)c1O` [5-105], the “M: velvetleaf, herbicidal effect grade” value (velvetleaf [2]) was 2 (Herbicidal rate of 20% or more and less than 40%), the “Herbicidal effect, C” value (oval-leafed pondweed; [14]) was 0 (Herbicidal rate of 5% or less (almost no effect)) and the “herbicidal effect on southern crabgrass (F)” value (southern crabgrass [3]) was 4 (Herbicidal rate of 70% or more and less than 90%). The “herbicidal effect on barnyard grass (H)” value (barnyard grass [1]; 320 g/ha) was 5 (Herbicidal rate of 90% or more (almost completely withered)), the “Herbicidal effect, A: late watergrass” value (late watergrass; [14]) was 2 (Herbicidal rate of 20% or more and less than 40%) and the “herbicidal effect … (D)” value (Chinese sprangletop; 320 g/ha) was 0 (Herbicidal rate of 5% or less (almost no effect)). For the same compound, the “O: lambsquarters, herbicidal effect grade” value (lambsquarters [4]) was 4 (Herbicidal rate of 70% or more and less than 90%), the “H: barnyard grass, herbicidal effect grade” value (barnyard grass [5]) was 0 (Herbicidal rate of 5% or less (almost no effect)) and the “N: redroot pigweed, herbicidal effect grade” value (redroot pigweed) was 3 (Herbicidal rate of 40% or more and less than 70%). For the same compound, the “herbicidal effect on barnyard grass (H)” value (barnyard grass [6]) was 5 (Herbicidal rate of 90% or more (almost completely withered)), the “F: southern crabgrass, herbicidal effect grade” value (southern crabgrass [7]) was 0 (Herbicidal rate of 5% or less (almost no effect)) and the “herbicidal effect on green foxtail (G)” value (green foxtail [8]) was 5 (Herbicidal rate of 90% or more (almost completely withered)). The “herbicidal effect on rice flat sedge (E)” value (rice flat sedge; 320 g/ha) was 0 (Herbicidal rate of 5% or less (almost no effect)), the “G: green foxtail, herbicidal effect grade” value (green foxtail [9]) was 0 (Herbicidal rate of 5% or less (almost no effect)) and the “Herbicidal effect, B: Japanese bulrush” value (Japanese bulrush; [14]) was 0 (Herbicidal rate of 5% or less (almost no effect)). For the same compound, the “herbicidal effect on lambsquarters (O)” value (lambsquarters [10]) was 5 (Herbicidal rate of 90% or more (almost completely withered)) and the “herbicidal effect on velvetleaf (M)” value (velvetleaf [11]) was 4 (Herbicidal rate of 70% or more and less than 90%).
